Assay results taken from ChEMBL document CHEMBL1140075 (J Med Chem, 2008).
The source made the active and inactive calls. No cut-off for these calls is given here. Positions of bridges follow the written chain, without caps; N, C: chain ends. Residues, ends and D or L forms follow the SMILES beside them.

Tests used:
[1] = biological target: Acetylcholine-binding protein (Lymnaea stagnalis, UniProt P58154)
[2] = biological target: Neuronal acetylcholine receptor subunit alpha-7 (Rattus norvegicus, UniProt Q05941)
[3] = Stability assessed as half life of native globular conformation state in presence of reduced glutathione at 500 uM; format: physicochemical; conditions: solution with 500 uM reduced glutathione
[4] = Stability assessed as loss of native globular conformation level in presence of reduced glutathione at 500 uM at 2 hrs; format: physicochemical; conditions: solution with 500 uM reduced glutathione; read-out: Activity
[5] = biological target: Neuronal acetylcholine receptor subunit alpha-7 (Rattus norvegicus) (UniProt Q05941); assay: Activity at rat alpha7 nAChR expressed in Xenopus laevis assessed as inhibition of acetylcholine-induced current at holding potential of -80 mV up to 1 uM by two-electrode voltage clamp technique
physchem = conditions: solution with 500 uM reduced glutathione
[6] = biological target: Neuronal acetylcholine receptor subunit alpha-7 (Rattus norvegicus) (UniProt Q05941); assay: Activity at rat alpha7 nAChR expressed in Xenopus laevis assessed as inhibition of acetylcholine-induced current at holding potential of -80 mV up to 10 uM by two-electrode voltage clamp technique
[7] = Stability assessed as native globular conformation level in presence of reduced glutathione at 500 uM at 24 hrs; format: physicochemical; conditions: solution with 500 uM reduced glutathione; read-out: Stability

Sequence of Acetylcholine-binding protein (P58154 whole entry): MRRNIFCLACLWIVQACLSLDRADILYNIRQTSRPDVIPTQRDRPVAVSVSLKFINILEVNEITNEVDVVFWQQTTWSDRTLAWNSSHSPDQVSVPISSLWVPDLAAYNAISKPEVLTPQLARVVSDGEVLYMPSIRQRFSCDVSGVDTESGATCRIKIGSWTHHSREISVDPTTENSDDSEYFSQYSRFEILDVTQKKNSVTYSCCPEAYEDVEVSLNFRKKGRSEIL
Sequence of Neuronal acetylcholine receptor subunit alpha-7 (Q05941 whole entry): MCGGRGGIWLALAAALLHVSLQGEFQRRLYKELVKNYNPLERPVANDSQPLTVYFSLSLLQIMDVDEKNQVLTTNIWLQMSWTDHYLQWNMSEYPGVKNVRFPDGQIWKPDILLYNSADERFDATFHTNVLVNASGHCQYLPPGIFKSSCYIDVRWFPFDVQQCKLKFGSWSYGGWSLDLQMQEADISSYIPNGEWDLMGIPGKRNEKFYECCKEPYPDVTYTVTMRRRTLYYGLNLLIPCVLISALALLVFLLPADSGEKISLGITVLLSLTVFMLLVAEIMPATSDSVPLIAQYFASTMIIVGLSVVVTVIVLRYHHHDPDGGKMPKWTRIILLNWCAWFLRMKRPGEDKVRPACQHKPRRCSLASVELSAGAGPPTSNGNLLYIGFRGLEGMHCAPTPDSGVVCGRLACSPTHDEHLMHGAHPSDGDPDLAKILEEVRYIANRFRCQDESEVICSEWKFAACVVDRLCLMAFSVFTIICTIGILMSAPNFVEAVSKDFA
Sequence of Neuronal acetylcholine receptor subunit alpha-7 (Rattus norvegicus) (Q05941 whole entry): as above

Row | Compound | Ki [1] [nM] | IC50 [2] [nM] | half-life [3] [h] | degraded at 2 h [4] [%] | Activity [5] | remaining at 8 h, 500 µM (physchem) [%] | Activity [6] | remaining at 24 h [7] [%]
1 | CC(C)C[C@@H]1NC(=O)[C@H](CO)NC(=O)[C@@H]2CSSC[C@@H](C(=O)O)NC(=O)[C@H](Cc3ccc(O)cc3)NC(=O)[C@H](CC(=O)O)NC(=O)[C@@H]3CCCN3C(=O)[C@H](CC(N)=O)NC(=O)[C@H](CC(N)=O)NC(=O)[C@H](C)NC(=O)[C@H](C)NC(=O)[C@H](CSSC[C@H](NC(=O)CN)C(=O)N2)NC(=O)[C@@H]2CCCN2C(=O)[C@@H]2CCCN2C1=O (H-GCCSLPPCAANNPDYC-OH; disulfide 2-8, 3-16) | 124 | 252 | – | – | – | – | – | –
2 | CC(C)C[C@@H]1NC(=O)[C@H](C)NC(=O)[C@@H]2CSSC[C@H](NC(=O)CN)C(=O)N[C@@H](CSSC[C@@H](C(=O)O)NC(=O)[C@H](CC(N)=O)NC1=O)C(=O)N[C@@H](CO)C(=O)N[C@@H](CC(C)C)C(=O)N1CCC[C@H]1C(=O)N1CCC[C@H]1C(=O)N2 (H-GCCSLPPCALNC-OH; disulfide 2-8, 3-12) | 7900 | > 10000 | < 0.5 | > 80 | inactive | – | – | –
3 | CC(C)C[C@@H]1NC(=O)[C@H](C)NC(=O)[C@@H]2CSSC[C@H](NC(=O)CN)C(=O)N[C@@H](CSSC[C@@H](C(=O)O)NC(=O)[C@H](CC(N)=O)NC(=O)[C@H](CC(N)=O)NC1=O)C(=O)N[C@@H](CO)C(=O)N[C@@H](CC(C)C)C(=O)N1CCC[C@H]1C(=O)N1CCC[C@H]1C(=O)N2 (H-GCCSLPPCALNNC-OH; disulfide 2-8, 3-13) | 4500 | 207 | < 0.5 | > 80 | – | – | – | –
4 | CC(C)C[C@@H]1NC(=O)[C@H](C)NC(=O)[C@@H]2CSSC[C@H](NC(=O)CN)C(=O)N[C@@H](CSSC[C@@H](C(=O)O)NC(=O)[C@@H]3CCCN3C(=O)[C@H](CC(N)=O)NC(=O)[C@H](CC(N)=O)NC1=O)C(=O)N[C@@H](CO)C(=O)N[C@@H](CC(C)C)C(=O)N1CCC[C@H]1C(=O)N1CCC[C@H]1C(=O)N2 (H-GCCSLPPCALNNPC-OH; disulfide 2-8, 3-14) | 4600 | 79 | < 0.5 | > 80 | – | – | – | –
5 | CC(C)C[C@@H]1NC(=O)[C@H](C)NC(=O)[C@@H]2CSSC[C@H](NC(=O)CN)C(=O)N[C@@H](CSSC[C@@H](C(=O)O)NC(=O)[C@H](CC(=O)O)NC(=O)[C@@H]3CCCN3C(=O)[C@H](CC(N)=O)NC(=O)[C@H](CC(N)=O)NC1=O)C(=O)N[C@@H](CO)C(=O)N[C@@H](CC(C)C)C(=O)N1CCC[C@H]1C(=O)N1CCC[C@H]1C(=O)N2 (H-GCCSLPPCALNNPDC-OH; disulfide 2-8, 3-15) | 3100 | 115 | 2 | – | – | 40 | inactive | –
6 | CC(C)C[C@@H]1NC(=O)[C@H](C)NC(=O)[C@@H]2CSSC[C@H](NC(=O)CN)C(=O)N[C@@H](CSSC[C@@H](C(=O)O)NC(=O)[C@H](CC(N)=O)NC1=O)C(=O)N[C@@H](CO)C(=O)N[C@@H](CC(C)C)C(=O)N1CCC[C@H]1C(=O)N[C@@H](CCCNC(=N)N)C(=O)N2 (H-GCCSLPRCALNC-OH; disulfide 2-8, 3-12) | – | – | 1 | – | – | – | inactive | 40
